Among the data in ChEMBL document CHEMBL1123766, “2-Amino- and 2-guanidino-1,2,3,4-tetrahydro-1,4-epoxynaphthalenes as conformationally defined analogues of alpha-adrenergic agents” (J Med Chem, 1987) are pD2 and Efficacy values, retold here.

For assay [1], the target named is T1, Adrenergic receptor alpha-2 (Rattus norvegicus) (UniProt P22086+P19328+P22909). The assay can be described thus: Evaluated for alpha-2 adrenergic receptor activity in the field stimulated rat vas deferens preparation. The format is tissue-based.
Assay [2] concerns the target T1, Adrenergic receptor alpha-2 (Rattus norvegicus). As to the kind of experiment: Approximate efficacy based on maximal effect produced by […] was determined against the alpha-2 adrenergic receptor. The format is protein assay.
The target is the same in assay [3]. The assay can be described thus: Evaluated for alpha-2 adrenergic receptor activity in the field stimulated rat vas deferens preparation.* Confirmed by pretreatment with reserpine (3 mg/kg) 16 hr prior to sacrifice. Stimulatory effects blocked by prazosin (78 nM). Value estimated in the presen.
Assay [4] shares this target. The assay can be described thus: Evaluated for alpha-2 adrenergic receptor activity in the field stimulated rat vas deferens preparation.*-confirmed by pretreatment with reserpine (3 mg/kg) 16 hr prior to sacrifice. Stimulatory effects blocked by prazosin (78 nM).
Assay [5] shares this target. As to the kind of experiment: Evaluated for alpha-2 adrenergic receptor activity in the field stimulated rat vas deferens preparation. The format is tissue-based.
Assay [6] has the same target. The assay can be described thus: Evaluated for alpha-2 adrenergic receptor activity in the field stimulated rat vas deferens preparation.* Stimulatory effects blocked by prazosin (78 nM). Format: tissue-based.

`COc1ccc(OC)c(C(O)C(C)N)c1` (centres undefined) displayed a pD2 in assay [1] of 6.48. Further, in assay [2], the Efficacy is 1. Regarding `N[C@@H]1CC2OC1c1ccccc12` (some centres undefined), the pD2 in assay [1] is less than 3. `N[C@H]1CC2OC1c1ccccc12` (some centres undefined): the pD2 in assay [3] was 4.9. As to `COc1ccc(OC)c2c1C1C[C@H](N)C2O1` (some centres undefined), the pD2 in assay [4] was determined as 5.08. Further, in assay [2], the Efficacy is 0.9. The molecule `COc1ccc(OC)c2c1C1C[C@@H](N)C2O1` (some centres undefined) showed a pD2 in assay [5] of 3.49.

In turn, `COc1ccc(OC)c2c1C1CC(N=C(N)N)C2O1` (centres undefined) gave a pD2 in assay [6] of 4.75. Also, in assay [2], the Efficacy was 0.7.
